Patent US20110293720A1, “PROGESTIN-CONTAINING DRUG DELIVERY SYSTEM” (BAYER SCHERING PHARMA AKTIENGESELLSCHAFT, priority 2008, published 2011)

Assay: Particle size distribution (d50/d70/d90, volume distribution, e.g. laser diffraction)
Type: physicochemical
Conditions: micronized active ingredient before coating
From the text: When used herein, the term “d90 particle size” is intended to mean that the particle size distribution is so that at least 90% of the particles have a particle diameter of less than the specified value, calculated from the volume distribution curve under the presumption of spherical particles. In a similar way, the term “d50 particle size” is intended to mean that the particle size distribution is so that at least 50% of the particles have a particle diameter of less than the specified value, calculated from the volume distribution curve under the presumption of spherical particles.
Therefore, it is important to note that whenever the terms “particle size”, “particle size distribution”, “particle diameter”, “d90”, “d50”, etc., are used herein it should be understood that the specific values or ranges used in connection therewith are always meant to be determined from the volume distribution curve under the presumption of spherical particles. The particle size distribution may be determined by various techniques, e.g. laser diffraction, and will be known to the person skilled in the art. […] The particle size distribution of the particles comprising the progestin and the protective agent, when incorporated in the wafer, may be determined by dissolving the film forming matrix, separation of the protected particles, and drying the protected particles. […]

d50: 2.2 μm | d90: 4.8 μm
SMILES: C[C@]12CCC(=O)C=C1[C@@H]1C[C@@H]1[C@H]1[C@@H]3[C@@H]4C[C@@H]4[C@@]4(CCC(=O)O4)[C@@]3(C)CC[C@@H]12 [drospirenone]
